Source: publication PMC3179492, “HIV Protease Inhibitors Act as Competitive Inhibitors of the Cytoplasmic Glucose Binding Site of GLUTs with Differing Affinities for GLUT1 and GLUT4” (PLoS ONE, 2011)
Where “and” joins values, the source holds several entries; their conditions need not be identical. Equal entries are not always repeated. Where two headings read alike, the source gives them in different places.

Legend:
GLUT4 [1] = target: T1, GLUT4 (Mus musculus, UniProt P14142); assay: Kinetic (Scatchard) analysis of indinavir effect on ATB-BMPA labeling of GLUT4 in LDM; type: binding; parameters: LDM contains small intracellular vesicles of GLUT4 and GLUT1; endogenous in cells; host or cells: low-density microsome fraction of differentiated 3T3-L1 adipocytes; details: for Kd: Scatchard plot
T1 sequence (P14142 1-509): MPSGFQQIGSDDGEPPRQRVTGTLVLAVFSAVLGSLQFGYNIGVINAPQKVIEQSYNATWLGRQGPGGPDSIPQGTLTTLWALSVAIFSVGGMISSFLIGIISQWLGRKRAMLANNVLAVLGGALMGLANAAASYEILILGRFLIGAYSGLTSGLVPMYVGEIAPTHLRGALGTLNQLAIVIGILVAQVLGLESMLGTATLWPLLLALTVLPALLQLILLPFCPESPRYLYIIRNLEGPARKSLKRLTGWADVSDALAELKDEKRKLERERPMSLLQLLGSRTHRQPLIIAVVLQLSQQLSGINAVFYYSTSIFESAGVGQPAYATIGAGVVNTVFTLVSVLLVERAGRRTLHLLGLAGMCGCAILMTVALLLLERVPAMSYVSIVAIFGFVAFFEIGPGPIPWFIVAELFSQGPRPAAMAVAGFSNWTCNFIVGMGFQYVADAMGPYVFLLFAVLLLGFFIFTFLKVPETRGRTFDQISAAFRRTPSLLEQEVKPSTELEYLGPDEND
Method: ATB-BMPA (50, 100, 200, 300 µM final concentration) was then added for an additional 10 min (5 min at room temperature, 5 min at 4 °C). Samples (110 µl final volume) were UV irradiated as described above. After removal of excess label with a desalting spin column, GLUT4 protein was immunoprecipitated from Thesit-solubilized LDM using a GLUT4 C-terminal directed antibody. ATB-BMPA-bound GLUT4 was analyzed by immunoblot analysis using an IR Dye 800 CW fluorescent streptavidin (LI-COR) and quantified with an Odyssey Infrared Imaging System. Identical samples that were not UV irradiated were used to correct for non-specific binding. The free ATB-BMPA concentration was assumed to be equal to the total ATB-BMPA concentration since the label concentration far exceeded the GLUT4 concentration. The data was expressed as Scatchard plots, bound/free versus bound. The Bmax and Kd values were determined from the horizontal intercept and the negative […], respectively.

[2] = target: insulin-stimulated rat adipocytes; details: read-out: Ki for inhibition of sugar uptake; cited from earlier work
human erythrocytes = target: human erythrocytes; parameters: method as in PMID 2390055; details: read-out: Ki for inhibition of sugar uptake; cited from earlier work
GLUT4 [3] = target: T1, GLUT4; assay: ATB-BMPA photolabeling of low-density microsomes (LDM) from 3T3-L1 adipocytes, GLUT4; type: binding; parameters: LDM contains small intracellular vesicles of GLUT4 and GLUT1; endogenous in cells; host or cells: low-density microsome fraction of differentiated 3T3-L1 adipocytes; details: for IC50: LDM 200 µg, biotinylated ATB-BMPA 50 µM, mean ± S.E., n = 3, read-out: Half-maximal inhibition (IC50) of ATB-BMPA binding to GLUT4; for Selectivity GLUT4 vs GLUT1, inhibition of ATB-BMPA labeling: LDM of 3T3-L1 adipocytes
Method: (§1) 3T3-L1 fibroblasts were grown to confluency and 48 h later subjected to differentiation as previously described. 3T3-L1 adipocytes were used 10 – 14 days after differentiation. Six culture dishes (15 cm) of adipocytes were serum-starved overnight, washed 3 times with ice-cold HES buffer (50 mM Hepes, pH 7.4, 255 mM sucrose, and 1 mM EDTA) containing Roche complete protease inhibitors (Roche Applied Science, Mannheim, Germany), scraped into 5 ml of the same buffer, and then homogenized with either a ball-bearing homogenizer or with a Potter-Elvehjem tissue grinder and a PTFE pestle. The low-density microsome (LDM) fraction was obtained by differential centrifugation as described previously. LDM were resuspended in phosphate buffer (25 mM phosphate, pH 7.4, 100 mM NaCl, 5% glycerol) containing complete Roche protease inhibitors.
(§2) Inhibitors were added to LDM (200 µg protein unless otherwise stated) for 10 min at room temperature. Samples (final volume 110 µl) were then incubated for 10 min at room temperature in the dark with biotinylated ATB-BMPA (50 µM final concentration) and then placed on ice prior to UV irradiation. Reactions were transferred to a 24-well low protein retention culture dish (Costar, Corning, NY) and then irradiated at room temperature 5 cm from a Green Spot UV lamp for 1 min (30 sec of light, followed by 30 sec of darkness, followed by 30 sec of light).
(§3) 20 µl of BSA (1.5 mg/ml final concentration) was added to the UV irradiated samples in a siliconized eppendorph tube. Excess biotinylated ATB-BMPA label was removed using a 0.5 ml Zeba Spin Desalting Column (Pierce). Biotinylated proteins were isolated essentially as described previously. Membranes were solubilized for 30 min at 4°C with 2% Thesit detergent buffer containing protease inhibitors. After centrifugation at 16,000 x g for 10 min, the supernatants were incubated overnight at 4°C with 50 µl of high capacity Streptavidin Agarose resin (Pierce). Precipitates were washed 3 times with 1% Thesit detergent buffer, twice with 0.1% Thesit detergent buffer, and once with phosphate buffer. Biotinylated proteins were eluted at 95 – 100°C for 20 min in 60 µl of 2X Laemmli Sample Buffer containing 40 mM dithiothreitol. Half of the eluted proteins were subjected to SDS-PAGE and transferred to nitrocellulose. Immunoblot analysis was carried out using GLUT4 and GLUT1 specific antibodies and quantified using an Odyssey Infrared Imaging System (LI-COR Biosciences, Lincoln, NE).

GLUT1 = target: T2, GLUT1 (Mus musculus, UniProt P17809); assay: ATB-BMPA photolabeling of low-density microsomes (LDM) from 3T3-L1 adipocytes, GLUT1; type: binding; details: for IC50: LDM 200 µg, biotinylated ATB-BMPA 50 µM, mean ± S.E., n = 3, read-out: Half-maximal inhibition (IC50) of ATB-BMPA binding to GLUT1
T2 construct: LDM contains small intracellular vesicles of GLUT4 and GLUT1; endogenous in cells; host or cells: low-density microsome fraction of differentiated 3T3-L1 adipocytes
T2 sequence (P17809 1-492): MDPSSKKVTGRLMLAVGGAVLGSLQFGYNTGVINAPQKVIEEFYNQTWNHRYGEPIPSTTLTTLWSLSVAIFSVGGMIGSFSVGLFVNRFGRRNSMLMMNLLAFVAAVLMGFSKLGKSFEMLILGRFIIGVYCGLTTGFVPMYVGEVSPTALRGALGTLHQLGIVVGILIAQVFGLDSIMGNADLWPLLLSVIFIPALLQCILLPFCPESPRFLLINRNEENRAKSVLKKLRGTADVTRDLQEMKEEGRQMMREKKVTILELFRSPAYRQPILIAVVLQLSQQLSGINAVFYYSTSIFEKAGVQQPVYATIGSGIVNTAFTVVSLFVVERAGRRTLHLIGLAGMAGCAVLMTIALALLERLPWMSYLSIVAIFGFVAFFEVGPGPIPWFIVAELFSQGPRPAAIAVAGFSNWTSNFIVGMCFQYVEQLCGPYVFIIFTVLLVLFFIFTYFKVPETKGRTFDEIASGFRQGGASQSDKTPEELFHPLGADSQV
Method: as §1, §2, §3

primary rat adipocytes [4] = assay: 2-Deoxyglucose uptake in insulin-stimulated primary rat adipocytes (predominantly GLUT4); type: cell-based; details: for Effect on 2-deoxyglucose uptake (GLUT4 transporter activity): primary rat adipocytes
Method: Adipocytes from epididymal fat pads were prepared from male Wistar rats weighing 150 – 200 g (from Charles River Laboratories, Inc., Wilmington, MA) as previously described. Adipocytes were stimulated with 1 µM insulin for 30 min at 37°C prior to use. 2-Deoxyglucose uptakes were performed by adding 80 µl of the cell suspension to 80 µl of Krebs-Ringer bicarbonate Hepes buffer (KRB) (120 mM NaCl, 4 mM KH2PO4, 1 mM MgSO4, 1 mM CaCl2, 10 mM NaHCO3, 200 nM adenosine, 30 mM Hepes, pH 7.4) containing 3% bovine serum albumin. HIV protease inhibitors / vehicle were added 5 min prior to the initiation of the reaction. Uptakes were initiated with the addition of 20 µl of [^3H]2-deoxyglucose (final 2-deoxyglucose concentration 50 µM; 0.5 µCi/assay). After 1 min at 37 °C, reactions were quenched with cytochalasin B to a final concentration of 0.4 mM. The cells were separated by spinning the reaction through dinonylphthalate as previously described and the intracellular radioactivity was quantified by liquid scintillation counting. Non-specific uptake measured in the presence of 20 µM cytochalasin B (Sigma) was subtracted from the experimental values.

3T3-L1 fibroblasts = assay: 2-Deoxyglucose uptake in 3T3-L1 fibroblasts (express only GLUT1); type: cell-based; details: for Effect on 2-deoxyglucose uptake (GLUT1 transporter activity): 3T3-L1 fibroblasts
Method: 3T3-L1 fibroblasts were grown to confluency in Dulbecco's modified Eagle's medium (DMEM) supplemented with 10% calf serum. The uptake of [^3H]2-Deoxyglucose (50 µM) was measured in Krebs-Ringer phosphate buffer for 6 min at 37°C as previously described. HIV protease inhibitors were added 6 min prior to the start of the reaction. Non-specific uptake measured in the presence of 20 µM cytochalasin B (Sigma) was subtracted from the experimental values.

myotubes = system: myotubes; parameters: method as in PMID 1401073; details: read-out: IC50 for inhibition of 2-deoxy-glucose uptake into myotubes; cited from earlier work
GLUT4 [5] = target: T1, GLUT4; details: Xenopus oocytes; read-out: Binding affinity (KI) for GLUT4 in the oocyte system; cited from earlier work
primary rat adipocytes [6] = details: read-out: KI from inhibition of zero trans glucose uptake; cited from earlier work
[7] = 10 µM PI (therapeutic concentration)

Row | Compound | Effect on ATB-BMPA labeling of GLUT4 (GLUT4 [3]; [7]) | Effect on ATB-BMPA labeling of GLUT4 (GLUT4 [3]; 50 µM PI) | IC50 (GLUT4 [3]) | Effect on ATB-BMPA labeling of GLUT1 (GLUT1; [7]) | Effect on ATB-BMPA labeling of GLUT1 (GLUT1; 50 µM PI) | IC50 (GLUT1) | Effect on 2-deoxyglucose uptake (GLUT4 transporter activity) (primary rat adipocytes [4]; 10 µM PI) | Effect on 2-deoxyglucose uptake (GLUT4 transporter activity) (primary rat adipocytes [4]; 50 µM PI) | Effect on 2-deoxyglucose uptake (GLUT1 transporter activity) (3T3-L1 fibroblasts; 10 µM PI) | Effect on 2-deoxyglucose uptake (GLUT1 transporter activity) (3T3-L1 fibroblasts; 50 µM PI) | further results
1 | O=C(CCCCC1SCC2NC(=O)NC21)NCCCCCC(=O)NCCOCCOCCOc1cc(C2(C(F)(F)F)N=N2)ccc1C(=O)NC(CO[C@H]1[C@H](O)[C@H](O)C(O)O[C@@H]1CO)CO[C@H]1[C@H](O)[C@H](O)C(O)O[C@@H]1CO (stereo partly drawn) [ATB-BMPA] | – | – | – | – | – | – | – | – | – | – | Kd (GLUT4 [1]; 0 µM indinavir, read-out: Kd of ATB-BMPA binding to GLUT4): 75 µM; Kd (GLUT4 [1]; 10 µM indinavir, read-out: Kd (apparent) of ATB-BMPA binding to GLUT4): 152 µM; Kd (GLUT4 [1]; 20 µM indinavir, read-out: Kd (apparent) of ATB-BMPA binding to GLUT4): 218 µM; Kd (GLUT4 [1]; 50 µM indinavir, read-out: Kd (apparent) of ATB-BMPA binding to GLUT4): 510 µM; Ki [2]: ~350 µM; Ki (human erythrocytes): ~350 µM
2 | COC(=O)N[C@H](C(=O)N[C@@H](Cc1ccccc1)[C@@H](O)CN(Cc1ccc(-c2ccccn2)cc1)NC(=O)[C@@H](NC(=O)OC)C(C)(C)C)C(C)(C)C [Atazanavir, atazanavir] | no effect | affected | 66 ± 3.3 µM | no effect | affected | 59 ± 4.8 µM | no effect | affected | no effect | affected | Selectivity GLUT4 vs GLUT1, inhibition of ATB-BMPA labeling (GLUT4 [3]): non-specific GLUT inhibitor; Selectivity GLUT4 vs GLUT1, inhibition of ATB-BMPA labeling (GLUT4 [3]; listed as atazanavir): non-selective; Selectivity GLUT4 vs GLUT1, inhibition of glucose uptake (primary rat adipocytes [4]; primary rat adipocytes vs 3T3-L1 fibroblasts): non-specific GLUT inhibitor
3 | C=C1[C@@H](C)[C@H]2[C@H](Cc3ccccc3)NC(=O)[C@]23OC(=O)/C=C/[C@H](O)CCC[C@@H](C)C/C=C/[C@H]3[C@@H]1O [CB, cytochalasin B] | – | – | 0.44 ± 0.07 µM | – | – | 0.35 µM and 0.36 µM | – | – | – | – | IC50 (myotubes): 0.4 µM
4 | CC(C)(C)NC(=O)[C@@H]1CN(Cc2cccnc2)CCN1C[C@@H](O)C[C@@H](Cc1ccccc1)C(=O)N[C@H]1c2ccccc2C[C@H]1O [Indinavir, indinavir] | – | – | 20.7 ± 3.9 µM | – | – | 178 ± 43 µM | reduced | affected | unaffected | affected but a lesser extent than GLUT4 | IC50 (primary rat adipocytes [4]; Rattus norvegicus, Adipocyte, insulin-stimulated, 50 µM 2-deoxyglucose, read-out: IC50 for inhibition of 2-deoxyglucose uptake in primary rat adipocytes): 11 µM; Ki (GLUT4 [1]; from Kd(apparent) = Kd (1 + [I]/KI), LDM 50 µg, read-out: KI, competitive inhibition of ATB-BMPA binding to the cytoplasmic glucose binding site of GLUT4): 8.2 µM; IC50 (3T3-L1 fibroblasts; Mus musculus, 3T3-L1, basal, 50 µM 2-deoxyglucose, read-out: IC50 for inhibition of 2-deoxyglucose uptake in 3T3-L1 fibroblasts): 241 µM; Ki (GLUT4 [5]): 50 µM; Ki (primary rat adipocytes [6]): 15 µM
5 | CC(C)c1nc(CN(C)C(=O)N[C@H](C(=O)N[C@@H](Cc2ccccc2)C[C@H](O)[C@H](Cc2ccccc2)NC(=O)OCc2cncs2)C(C)C)cs1 [Ritonavir, ritonavir] | – | affected | – | – | affected | – | – | affected | – | affected | –
6 | CCC[C@@]1(CCc2ccccc2)CC(O)=C([C@H](CC)c2cccc(NS(=O)(=O)c3ccc(C(F)(F)F)cn3)c2)C(=O)O1 [Tipranavir] | no effect | no effect | – | no effect | no effect | – | no effect | no effect | no effect | no effect | –
